# Read-outs that look alike come from different tables or passages of the source.
# Experiments:
# HePTP = molecular target: T1, HePTP (Homo sapiens, UniProt P35236); experiment: PTP activity assay with pNPP as substrate: HePTP; assay type: biochemical; conditions: pNPP as substrate at Km, pH 7.0, 25° C., I = 0.15 M
# T1 sequence (P35236 1-360): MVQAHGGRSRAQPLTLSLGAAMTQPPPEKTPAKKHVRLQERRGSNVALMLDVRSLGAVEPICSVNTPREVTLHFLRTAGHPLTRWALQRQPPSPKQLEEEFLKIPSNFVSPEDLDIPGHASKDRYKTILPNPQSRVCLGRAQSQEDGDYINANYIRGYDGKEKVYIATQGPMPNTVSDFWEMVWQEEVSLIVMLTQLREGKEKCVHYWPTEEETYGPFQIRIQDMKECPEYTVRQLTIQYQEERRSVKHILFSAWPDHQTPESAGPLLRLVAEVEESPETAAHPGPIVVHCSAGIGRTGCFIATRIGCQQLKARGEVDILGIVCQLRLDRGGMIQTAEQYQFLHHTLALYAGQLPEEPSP
# Experimental: The PTP activity was assayed using pNPP as a substrate at 25° C. in 50 mM 3,3-dimethylglutarate buffer, pH 7.0, containing 1 mM EDTA with an ionic strength of 0.15 M adjusted by NaCl. TTM, TTN and the engineered analogs were analyzed for inhibition of a panel of PTPs at 10 μM compound concentration. For each enzyme screened, test compounds were diluted to 20 μM in 100 μL and combined with 50 μL pNPP at a concentration of 4×Km. The reaction was initiated by the addition of 50 μL of 4× concentrated enzyme and pNPP was allowed to convert to the product p-nitrophenol. The reaction was quenched by the addition of 50 μL of 5N NaOH. Nonenzymatic hydrolysis of pNPP was corrected by measuring the control without the addition of enzyme. Production of p-nitrophenol was monitored by a Spectra MAX385 microplate spectrophotometer (Molecular Devices) at 405 nm using a molar extinction coefficient of 18,000 M^−1 cm^−1. IC50 values were calculated by fitting the absorbance at 405 nm versus inhibitor concentration to the following equation: AI/A0=IC50/(IC50+[I]) where AI is the absorbance at 405 nm of the sample in the presence of inhibitor; Ao is the absorbance at 405 nm in the absence of inhibitor; and [I] is the concentration of the inhibitor.
# SHP2 = molecular target: T2, SHP2 (Homo sapiens, UniProt Q06124); experiment: Ki measurement, steady-state kinetic analysis of SHP2-catalyzed pNPP hydrolysis; assay type: biochemical
# T2 construct: The expression and purification of the SHP2 catalytic domain (residues 262-528) were described previously; made in house
# T2 sequence (Q06124 262-528): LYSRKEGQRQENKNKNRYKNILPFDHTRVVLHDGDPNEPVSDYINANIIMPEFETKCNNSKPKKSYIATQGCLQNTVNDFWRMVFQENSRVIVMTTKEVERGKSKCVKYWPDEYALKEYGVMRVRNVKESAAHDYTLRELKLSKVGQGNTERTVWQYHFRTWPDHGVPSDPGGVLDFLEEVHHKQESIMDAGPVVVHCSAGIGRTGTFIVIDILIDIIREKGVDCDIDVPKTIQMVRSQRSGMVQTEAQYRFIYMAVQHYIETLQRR
# Experimental: The SHP2-catalyzed hydrolysis of pNPP in the presence of TTN or TTN D-1 was assayed at 25° C. and in the assay buffer described above. The mode of inhibition and K, value were determined in the following manner. At various fixed concentrations of the inhibitor (0-3 Ki), the initial rate at a series of pNPP concentrations was measured by following the production of p-nitrophenol as describe above, ranging from 0.2- to 5-fold the apparent Km values. The data were fitted to appropriate equations using SigmaPlot-Enzyme Kinetics to obtain the inhibition constant and to assess the mode of inhibition.
# To further characterize SHP2 inhibition by the TTN and TTN D-1, the IC50 values for TTN and TTN D-1 were measured at a pNPP concentration fixed at the experimentally determined Km for each PTP. […] To establish the mechanism of SHP2 inhibition by TTN and TTN D-1, the inhibition constants and mode of inhibition were determined by steady-state kinetic analysis of the SHP2-catalyzed reaction.
# [1] = test system: SHP2/E76K-expressing hematopoietic progenitors; experiment: 3H-thymidine incorporation assay of transduced bone marrow LDMNCs with GM-CSF; assay type: cell-based; conditions: 2 μM TTN for 24 hrs, GM-CSF 1 ng/mL
# Experimental: Transduced, EGFP+ cells were subjected to ^3H-thymidine incorporation assays, as previously described (Munugalavadla et al., 2007), or plated at a concentration of 8000 cells/mL in 0.9% methylcellulose-based media containing IMDM, 2 mM glutamine, 1% penicillin/streptomycin, 80 μM β-mercaptoethanol, 30% FBS, and GM-CSF 1 ng/mL or with saturating concentrations of growth factors including IL-3 200 U/mL, erythropoietin 4 U/mL, and stem cell factor (SCF) 100 ng/mL. All growth factors were from Peprotech. Cultures were incubated in a humidified incubator at 37° C. in 5% CO2 for 7 days and were scored for total colonies and for morphology to determine colony forming unit (CFU)-granulocyte-macrophage (GM) or CFU-monocyte (M).
# For biochemical studies, macrophage progenitor cells expressing empty vector (MIEG3), wild-type SHP2, or SHP2/E76K were serum- and growth factor-deprived for 24 hours. Cells were pre-treated with DMSO or 2 μM TTN for 2 hours, and then cultures either remained unstimulated or were stimulated with GM-CSF at 50 ng/mL for 60 minutes. […] To provide further evidence that SHP2 is a molecular target of TTN, the inventors determined the X-ray crystal structure of SHP2 in complex with TTN D-1, as crystallization attempts for the SHP2-TTN complex were unsuccessful. […]
# PP1 = conditions: cited from earlier work
# [2] = test system: human primary T-cell tyrosine phosphorylation; conditions: Shim et al., 2002, cited from earlier work
# [3] = literature (Luo et al., 2007; Mitsuhashi et al., 2003, 2008); cited from earlier work
substance,measurement,setting,value
tautomycetin [TTN],IC50,HePTP,> 50000 nM
same,mode of inhibition of the SHP2-catalyzed reaction,"SHP2; Lineweaver-Burk, FIG. 2",competitive inhibitors
same,Ki,"SHP2; pNPP, 25° C., pH 7.0",1600 ± 100 nM
same,effect on GM-CSF-stimulated proliferation of SHP2/E76K-expressing progenitors,[1],effectively reduced the proliferation
same,preferential inhibition of PP1 relative to PP2A,"PP1; literature (Mitsuhashi et al., 2001)",about 40 fold
same,IC50,PP1; literature values,1.6 nM
same,concentration inhibiting human primary T-cell tyrosine phosphorylation,[2],1 µg/mL
same,concentration inhibiting human primary T-cell tyrosine phosphorylation,[2]; same value converted,1.65 µM
same,concentrations required to exert a cellular effect,[3],1 to 5 µM

# From US8637684B2, “Tautomycetin and tautomycetin analog biosynthesis” (Wisconsin Alumni Research Foundation, priority 2010, dated 2014)
